Laboratory results as given in patent publication US8952024B2, “Herbicidal pyrimidone derivatives” (E I du Pont de Nemours and Company, priority 2009, dated 2015).

What was measured:
Format in all cases: in vivo
[1] = test system: chickweed (Stellaria media); assay: Test B postemergence plant response
How it was run: (§1)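 Plants grown in peat/vermiculite medium were sprayed postemergence at 2–18 cm height (1- to 4-leaf stage). After 13–15 days in the greenhouse, response was rated visually against untreated controls on a 0–100 scale (0 no effect, 100 complete control).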

[2] = test system: winter barley (Hordeum vulgare); assay: Test B postemergence plant response
How it was run: as §1

[3] = test system: canarygrass (Phalaris minor); assay: Test B postemergence plant response
How it was run: as §1

[4] = test system: velvetleaf (Abutilon theophrasti); assay: Test B pre-/postemergence plant response; conditions: for Plant response rating, Velvetleaf: Postemergence, scale 0 to 100 (0 no effect, 100 complete control)
How it was run: (§2)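 Test compounds, formulated in a non-phytotoxic solvent mixture with surfactant, are applied to the soil surface (loam and sand blend) right after seeding, or sprayed over plants at the 1- to 4-leaf stage grown in peat moss/vermiculite medium. After 13 to 15 days under glasshouse conditions, each species is scored visually from 0 (no effect) to 100 (complete control) against controls.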

[5] = test system: ragweed (common ragweed, Ambrosia elatior); assay: Test B pre-/postemergence plant response; conditions: for Plant response rating, Ragweed: Postemergence, scale 0 to 100 (0 no effect, 100 complete control)
How it was run: as §2

[6] = test system: pigweed (Amaranthus retroflexus); assay: Test B pre-/postemergence plant response
How it was run: as §2

[7] = test system: bermudagrass (Cynodon dactylon); assay: Test B pre-/postemergence plant response
How it was run: as §2

corn (Zea mays) = assay: Test B pre-/postemergence plant response
How it was run: as §2

[8] = test system: green foxtail (Setaria viridis); assay: Test B pre-/postemergence plant response
How it was run: as §2

[9] = test system: morningglory (Ipomoea coccinea); assay: Test B pre-/postemergence plant response
How it was run: as §2

[10] = test system: downy bromegrass (Bromus tectorum); assay: Test B pre-/postemergence plant response
How it was run: as §2

[11] = test system: blackgrass (Alopecurus myosuroides); assay: Test B pre-/postemergence plant response
How it was run: as §2

soybean (Glycine max) = assay: Test B pre-/postemergence plant response; conditions: for Plant response rating, Soybean: Postemergence, scale 0 to 100 (0 no effect, 100 complete control)
How it was run: as §2

[12] = test system: Italian ryegrass (Lolium multiflorum); assay: Test B pre-/postemergence plant response; conditions: for Plant response rating, Ryegrass, Italian: Postemergence, scale 0 to 100 (0 no effect, 100 complete control)
How it was run: as §2

[13] = test system: goosegrass (Eleusine indica); assay: Test B pre-/postemergence plant response
How it was run: as §2

[14] = test system: wheat (Triticum aestivum); assay: Test B pre-/postemergence plant response
How it was run: as §2

[15] = test system: giant foxtail (Setaria faberii); assay: Test B pre-/postemergence plant response
How it was run: as §2

[16] = test system: johnsongrass (Sorghum halepense); assay: Test B pre-/postemergence plant response
How it was run: as §2

[17] = 31 g ai/ha, postemergence, scale 0 to 100, 0 is no effect, 100 is complete control
[18] = 62 g ai/ha, postemergence, 0 is no effect, 100 is complete control, 13 to 15 days
[19] = Postemergence, 125 g ai/ha, scale 0 to 100 (0 no effect, 100 complete control)
[20] = Postemergence, 250 g ai/ha, scale 0 to 100 (0 no effect, 100 complete control)

COCCn1c(-c2ccco2)ncc(C(=O)C2=C(O)CCCC2=O)c1=O [Compound 111]
Plant response rating, Chickweed [1, 17]: 95 | Chickweed plant response rating (0 to 100 scale) [1, 18]: 100 | Plant response rating, Chickweed [1, 19]: 100 | Plant response rating, Chickweed [1, 20]: 100 | Plant response rating, Barley [2, 17]: 0 | Barley plant response rating (0 to 100 scale) [2, 18]: 0 | Plant response rating, Barley [2, 19]: 5 | Plant response rating, Barley [2, 20]: 30 | Plant response rating, Canarygrass [3, 17]: 0 | Canarygrass plant response rating (0 to 100 scale) [3, 18]: 0 | Plant response rating, Canarygrass [3, 19]: 0 | Plant response rating, Canarygrass [3, 20]: 15 | Velvetleaf plant response rating (0 to 100 scale) [4, 18]: 98 | Plant response rating, Velvetleaf ([4]; 125 g ai/ha): 100 | Plant response rating, Velvetleaf ([4]; 250 g ai/ha): 100 | Ragweed plant response rating (0 to 100 scale) [5, 18]: 95 | Plant response rating, Ragweed ([5]; 125 g ai/ha): 98 | Plant response rating, Ragweed ([5]; 250 g ai/ha): 98 | Plant response rating, Pigweed [6, 17]: 95 | Pigweed plant response rating (0 to 100 scale) [6, 18]: 100 | Plant response rating, Pigweed [6, 19]: 100 | Plant response rating, Pigweed [6, 20]: 100 | Plant response rating, Bermudagrass [7, 17]: 95 | Bermudagrass plant response rating (0 to 100 scale) [7, 18]: 100 | Plant response rating, Bermudagrass [7, 19]: 100 | Plant response rating, Bermudagrass [7, 20]: 100 | Plant response rating, Corn (corn (Zea mays); [17]): 10 | Corn plant response rating (0 to 100 scale) (corn (Zea mays); [18]): 45 | Plant response rating, Corn (corn (Zea mays); [19]): 55 | Plant response rating, Corn (corn (Zea mays); [20]): 60 | Plant response rating, Foxtail, Green [8, 17]: 40 | Foxtail, Green plant response rating (0 to 100 scale) [8, 18]: 60 | Plant response rating, Foxtail, Green [8, 19]: 65 | Plant response rating, Foxtail, Green [8, 20]: 70 | Plant response rating, Morningglory [9, 17]: 100 | Morningglory plant response rating (0 to 100 scale) [9, 18]: 100 | Plant response rating, Morningglory [9, 19]: 100 | Plant response rating, Morningglory [9, 20]: 100 | Plant response rating, Bromegrass, Downy [10, 17]: 0 | Bromegrass, Downy plant response rating (0 to 100 scale) [10, 18]: 0 | Plant response rating, Bromegrass, Downy [10, 19]: 5 | Plant response rating, Bromegrass, Downy [10, 20]: 10 | Plant response rating, Blackgrass [11, 17]: 5 | Blackgrass plant response rating (0 to 100 scale) [11, 18]: 5 | Plant response rating, Blackgrass [11, 19]: 25 | Plant response rating, Blackgrass [11, 20]: 40 | Soybean plant response rating (0 to 100 scale) (soybean (Glycine max); [18]): 80 | Plant response rating, Soybean (soybean (Glycine max); 125 g ai/ha): 95 | Plant response rating, Soybean (soybean (Glycine max); 250 g ai/ha): 98 | Ryegrass, Italian plant response rating (0 to 100 scale) [12, 18]: 0 | Plant response rating, Ryegrass, Italian ([12]; 125 g ai/ha): 0 | Plant response rating, Ryegrass, Italian ([12]; 250 g ai/ha): 5 | Plant response rating, Goosegrass [13, 17]: 70 | Goosegrass plant response rating (0 to 100 scale) [13, 18]: 70 | Plant response rating, Goosegrass [13, 19]: 85 | Plant response rating, Goosegrass [13, 20]: 85 | Wheat plant response rating (0 to 100 scale) [14, 18]: 0 | Plant response rating, Wheat [14, 19]: 5 | Plant response rating, Foxtail, Giant [15, 17]: 60 | Foxtail, Giant plant response rating (0 to 100 scale) [15, 18]: 65 | Plant response rating, Foxtail, Giant [15, 19]: 65 | Plant response rating, Foxtail, Giant [15, 20]: 70 | Plant response rating, Johnsongrass [16, 17]: 10 | Johnsongrass plant response rating (0 to 100 scale) [16, 18]: 15 | Plant response rating, Johnsongrass [16, 19]: 20 | Plant response rating, Johnsongrass [16, 20]: 40
